Measurements taken from patent US11865090B2, “Tumor suppressive microRNAs for cancer therapy” (Hadasit Medical Research Services and Development Ltd., priority 2018, dated 2024).

Tests used:
miR-122 promoter [1] = experiment: miR-122 promoter luciferase reporter (PmiR-122-900) in BNL-1ME cells; format: cell-based, mouse; conditions: 10 μM overnight, measured 48 hours post transfection, normalized to Renilla
Protocol: (§1) Huh7 cells or BNL-1ME cells were transfected with the reporter constructs PmiR-122-900 (wt) or PmiR-122-900 mutated (mut) at RORα binding site. These constructs harbour about 1 kb of miR-122 promoter sequence (wt or mutated at the ROR alpha binding site), ligated to a luciferase (Luc) reporter gene. […] Controls included incubation of the cells with 0.4% DMSO (negative control), or with 75 μM Lauric acid (LA), which is a known activator of ROR-alpha. Luciferase activity was measured 48 hours post transfection and normalized to Renilla Luciferase activity expressed from a co-transfected pRL plasmid.

miR-122 [2] = experiment: AGPAT1-3'UTR (miR-122 target site) luciferase reporter in Huh7 cells; format: cell-based, human; conditions: 10 μM for 24 hours, DNMT1 3'-UTR as negative control
Protocol: Next, Huh7 cells were transfected with a reporter plasmid carrying the human AGPAT1-3′UTR (miR-122 target site) or a negative control reporter plasmid, DNMT1 3′-UTR. Cells were treated for 24 hours with: 0.4% DMSO, or with 75 μM lauric acid (LA) or with RORα agonist (10 μM SR1078) for 24 hours. Presented in FIG. 4B are bar graphs showing the results of the Luciferase assay. Luciferase activity was measured 48 hours post transfection and normalized to Renilla Luciferase activity expressed from a co-transfected pRL plasmid.

miR-122 promoter [3] = experiment: miR-122 promoter luciferase reporter (PmiR-122-900) in Huh7 cells; format: cell-based, human; conditions: 10 μM overnight, measured 48 hours post transfection, normalized to Renilla
Protocol: as §1

miR-122 [4] = experiment: In vivo miR-122 and CD24 mRNA levels after injection into BALB/C mice
Protocol: As shown in FIG. 8A—SR1078 agent (ROR alpha activator) was injected (1-5 μM) into BALB/C mice and was able to induce miR-122 expression within 3 hours, as indicated by the increased relative expression levels of miR-122 in the liver. miRNA-122 increased expression is in hepatocytes (“producing cells”).
The CD24 gene, the protein product of which is expressed on hepatic progenitors, is a target of miR-122.

miR-34a = miR-34a expression and secretion in Huh7 cells (RT-qPCR); format: cell-based, human; conditions: 10 μM overnight
Protocol: Huh7 cells treated with ROR-alpha agonist SR1078 (10 μM) overnight (o/n). Upon treatment, primary miR-34a expression levels and mature miR-34a secretion were elevated. miR-34a levels were tested in the cells and in their culture medium using RT-qPCR. The results clearly show elevation in the levels of miR-34a in the cells, as well as a marked elevation of the miR-34a in the external medium, indicating the miR-34a is secreted from the cells.

miR-122 [5] = experiment: qRT-PCR of miR-122 in medium of Huh7 cells; format: cell-based, human; conditions: 10 μM for 24 hours, normalized to spiked miR-39
Protocol: Shown in FIG. 4C is qRT-PCR analysis of miR-122 and miR-18 (negative control) in RNA extracted from the medium of Huh7 cells treated with 0.4% DMSO, 75 μM lauric acid (LA) or 10 μM RORα agonist (SR1078) for 24 hours. The microRNA levels in the cells' medium were normalized to spiked C. elegance miR-39.

miR-122 [6] = experiment: In vivo miR-122 and CD24 mRNA levels after injection into MDR2 knockout mice; conditions: three months old MDR2 KO mice, 6 hours after administration
Protocol: Similar effect is also apparent in measurements performed 6 hours after administration of the inducing agent, to three months old MDR2 knockout (KO) mice (which is a mice that develops liver cancer). This is presented in FIGS. 8C-D, which show the increase in relative levels of miR-122 (FIG. 8C) in liver extracts (hepatocytes) and the reciprocal reduction of CD24 relative expression levels (FIG. 8D), in progenitor cells.

relative levels of miR-122 in liver extracts (hepatocytes) (miR-122 [6]): increase
SMILES: O=C(Nc1ccc(C(O)(C(F)(F)F)C(F)(F)F)cc1)c1ccc(C(F)(F)F)cc1 [SR1078]
miR-122 promoter activity (Luciferase reporter) (miR-122 promoter [1]): activation of the miR-122 promoter | expression of active miR-122 acting on AGPAT1 reporter construct (Luciferase assay) (miR-122 [2]): increased expression of active miRNA | miR-122 promoter activity (Luciferase reporter) (miR-122 promoter [3]): activation of the miR-122 promoter | relative levels (RQ) of mRNA of CD24 in hepatic progenitor cells (miR-122 [4]; after injection of SR1078): reduced | relative expression levels of miR-122 in the liver (miR-122 [4]; injected (1-5 μM), 3 hours): increased | mature miR-34a secretion (miR-34a; RT-qPCR in culture medium): elevated | primary miR-34a expression levels (miR-34a; RT-qPCR in the cells): elevated | miRNA-122 levels in the medium (miR-122 [5]): increase | CD24 relative expression levels in progenitor cells (miR-122 [6]): reduction
